Measurements reported in ChEMBL document CHEMBL3399981, “Novel neurotrophic phenylbutenoids from Indonesian ginger Bangle, Zingiber purpureum” (Bioorg Med Chem Lett, 2015).
The source made the active and inactive calls. No cut-off for these calls is given here.

What was measured:
PC-12 [1] = assay: Neuritogenic activity in rat PC12 cells assessed as neurite outgrowth at 1 to 30 uM after 4 days by phase-contrast microscopy in presence of 2 ng/ml NGF; type: functional, cell-based
PC-12 [2] = assay: Neuritogenic activity in rat PC12 cells assessed as neurite outgrowth after 4 days by phase-contrast microscopy in presence of 2 ng/ml NGF; type: functional, cell-based
[3] = target: Amyloid-beta precursor protein (Homo sapiens) (UniProt P05067); assay: Inhibition of beta-sheet formation in amyloid beta-42 (unknown origin) assessed as decrease in ThT fluorescence after 1 hr by spectrophotometric plate reader
[4] = Toxicity in rat PC12 cells at > 10 uM after 4 days by phase-contrast microscopy in presence of 2 ng/ml NGF; type: cell-based; settings: pc-12, 96 h
PC-12 [5] = assay: Neuritogenic activity in rat PC12 cells assessed as neurite outgrowth at 1 uM after 4 days by phase-contrast microscopy in presence of 2 ng/ml NGF; type: functional, cell-based
[6] = target: Amyloid-beta precursor protein (Homo sapiens) (UniProt P05067); assay: Inhibition of beta-sheet formation in amyloid beta-42 (unknown origin) assessed as decrease in ThT fluorescence at 50 uM after 1 hr by spectrophotometric plate reader
[7] = Toxicity in rat PC12 cells at > 30 uM after 4 days by phase-contrast microscopy in presence of 2 ng/ml NGF; type: cell-based; settings: pc-12, 96 h
PC-12 [8] = assay: Neuritogenic activity in rat PC12 cells assessed as neurite outgrowth at 10 uM after 4 days by phase-contrast microscopy in presence of 2 ng/ml NGF; type: functional, cell-based
PC-12 [9] = assay: Neuritogenic activity in rat PC12 cells assessed as neurite outgrowth at 30 uM after 4 days by phase-contrast microscopy; type: functional, cell-based

Sequence of Amyloid-beta precursor protein (Homo sapiens) (P05067 whole entry): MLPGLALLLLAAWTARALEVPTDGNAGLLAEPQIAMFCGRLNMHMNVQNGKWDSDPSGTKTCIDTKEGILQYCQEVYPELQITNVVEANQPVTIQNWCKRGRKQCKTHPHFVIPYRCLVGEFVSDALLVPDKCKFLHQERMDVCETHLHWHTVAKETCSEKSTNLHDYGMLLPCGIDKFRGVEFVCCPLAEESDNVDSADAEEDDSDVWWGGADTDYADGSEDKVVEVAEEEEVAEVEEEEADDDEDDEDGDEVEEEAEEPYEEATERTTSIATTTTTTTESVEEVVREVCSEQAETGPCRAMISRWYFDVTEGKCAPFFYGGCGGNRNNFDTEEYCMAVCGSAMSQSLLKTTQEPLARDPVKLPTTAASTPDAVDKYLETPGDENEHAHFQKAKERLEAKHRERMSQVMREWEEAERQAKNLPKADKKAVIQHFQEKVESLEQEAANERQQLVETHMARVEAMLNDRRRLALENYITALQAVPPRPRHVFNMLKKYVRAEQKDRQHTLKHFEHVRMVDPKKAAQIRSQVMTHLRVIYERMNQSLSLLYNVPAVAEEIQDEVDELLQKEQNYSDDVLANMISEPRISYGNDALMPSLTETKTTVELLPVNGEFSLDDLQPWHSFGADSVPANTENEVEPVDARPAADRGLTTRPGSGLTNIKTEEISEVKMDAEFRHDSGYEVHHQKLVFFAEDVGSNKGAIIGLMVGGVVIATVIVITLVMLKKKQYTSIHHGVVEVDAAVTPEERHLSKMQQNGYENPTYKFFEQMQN

| inhibition [3] | inhibition [6] | SMILES | Activity (PC-12 [1]) | Activity (PC-12 [2]) | Activity [4] | Activity (PC-12 [5]) | Activity [7] | Activity (PC-12 [8]) | Activity (PC-12 [9]) |
| --- | --- | --- | --- | --- | --- | --- | --- | --- | --- |
|  |  | COc1ccc([C@H]2[C@H](CCO)CC=C[C@@H]2c2ccc(OC)c(OC)c2)cc1OC | inactive |  |  |  |  |  |  |
| Dose-dependent effect | 18.9% | COc1cc(/C=C/C(=O)C2(C(=O)/C=C/c3ccc(O)c(OC)c3)CCC=C[C@@H]2c2ccc(OC)c(OC)c2)ccc1O |  | Dose-dependent effect | Toxic | Active |  |  |  |
|  |  | COc1cc(/C=C/C(=O)C2(C(=O)/C=C/c3ccc(O)c(OC)c3)CCC=C[C@@H]2c2cc(OC)c(OC)cc2OC)ccc1O |  | Dose-dependent effect |  | Active | Toxic | Active |  |
| Dose-dependent effect | 59.6% | COc1ccc(/C=C/[C@H]2CCC=C[C@@H]2c2ccc(OC)c(OC)c2)cc1OC |  |  |  |  |  |  | Active |
